Read-outs that look alike come from different tables or passages of the source.
How the values were obtained:
[1] = biological target: T1, GST-tagged full-length FAK enzyme (PTK2) (Homo sapiens, UniProt Q05397); assay: Biochemical Omnia Assay (FAK)
T1 construct: GST-tagged full-length FAK enzyme (PTK2, Invitrogen PV4085); GST; purchased Invitrogen PV4085
Protocol: Biochemical Omnia Assay Protocol
The Omnia Assay (Invitrogen) has been optimized for GST-tagged full-length FAK enzyme (PTK2, Invitrogen PV4085).
All compound concentrations were assayed in duplicate. Initial compound dilutions were prepared at 100× concentration in 100% DMSO from a 10 mM stock solution. Compounds were further diluted 1:25 in assay buffer resulting in a 4× concentrated solution.
In running the assay, 5 μL of the above 4× concentrated compound solution (or 4% DMSO for positive controls) was added to the assay plate followed by 5 μL of a solution containing peptide (40 μM) and ATP (200 μM) in assay buffer. The reaction was initiated by the addition of 10 μL of FAK (50 nM) in assay buffer, or assay buffer alone for negative controls. The increase in fluorescence due to peptide phosphorylation was monitored continuously as a function of time using a Spectramax M5 plate reader (Molecular Devices) equipped with SoftMax Pro 5.2 software.
IC50 values were determined from the slopes of the linear progress curves by non-linear curve-fitting using GraphPad Prism 5 (GraphPad Software, Inc.).

[2] = biological target: T2, FAK (Homo sapiens, UniProt Q05397); assay: Cell-based capture ELISA for inhibition of FAK autophosphorylation [pY397] in U87MG cells
T2 construct: endogenous in cells; host or cells: U87MG glioblastoma cells (ATCC HTB-14)
Protocol: Cell-Based Assays for Inhibition of FAK Autophosphorylation: MiaPaCa2 and U87MG
The ability of compounds to inhibit FAK autophosphorylation was determined in a cell-based capture ELISA assay using U87MG glioblastoma cells (ATCC, Cat # HTB-14) and the FAK [pY397]ELISA kit from Invitrogen (KHO0441). The assay determines the ability of compounds to block endogenous autophosphorylation of FAK stimulated by fibronectin. Cells plated on fibronectin coated 96-well plate were incubated with compounds at various concentrations in the complete growth medium for 2 h. Cell lysates were then prepared and FAK protein was captured onto a FAK antibody-coated 96-well ELISA plate. The phosphotyrosine content of FAK protein was then monitored by quantitation of degree of binding of an antibody that recognizes only the phosphorylated FAK at Y397 within the captured protein.
Reagents Provided in Biosource FAK [pY397]
Cultures of U87MG cells growing in MEM (Earles) containing non-essential amino acids, sodium pyruvate (1 mM), […] (1%) and 10% fetal bovine serum were detached by trypsin-EDTA and suspended in cell growth medium. Cells were then plated onto fibronectin (600 ng/well)-coated 96-well flat bottom plates at 1.7×10^4 cells per well in 60 uL cell growth medium and incubated overnight at 37° C. in a CO2 incubator.
Compound dilutions were prepared from 10 mM DMSO stocks by dilution in cell growth medium, the final concentration of DMSO in the assay being 0.6%. […] The cells were then incubated with compounds at 37° C. for 2 h. The medium was removed by aspiration and cells were lysed by addition of 20 uL of ice-cold cell lysis buffer per well. The plates were kept on ice for 20 min and 50 uL of standard diluent was added to each well. 50 uL of cell lysate from each well was transferred to respective wells in an assay plate and 50 uL of detection antibody was added to all wells except H1-H6 which were no antibody control wells. Capture assay plates were incubated overnight in a cold room.
Following incubation of the cell lysates and detection antibodies in the ELISA plate, the wells were washed 4 times with 120 uL of wash buffer (1×), then 100 uL of diluted HRP conjugated antibody (1:100 dil in diluent) was added to each well, and the plate was incubated at RT for 30 min. The wells were then washed for 4 times with 120 uL of wash buffer (1×) and 100 uL of chromogen was added to each well and incubated in the dark at RT for 5-10 min. 100 uL of stop solution was added to each well and the absorbance measured at 450 nm, 0.1 s.
Comparison of the assay signals obtained in the presence of compound with those of positive and negative controls (cells with no compound and no detection antibody being added), allows degree of inhibition of phospho-FAK [Y397] to be determined over a range of compound concentrations. […] The assay as described above was modified to determine the effect of inclusion of 50% (v/v) mouse or human plasma. In this assay, the compound plate was prepared as 2× concentration in 100 uL of 100% mouse or human plasma, and 60 uL of this was added to 60 uL of culture medium and incubated at 37° C. incubator for 2 h. The rest of the assay was carried out as described above.

[3] = 50% (v/v) human plasma, mean IC50, read-out: FAK Activity Mechanistic (U87MG) HP
[4] = no plasma present, mean IC50, read-out: FAK Activity Mechanistic (U87MG) NP
[5] = mean IC50, [ATP] = 50uM, read-out: FAK Activity Biochemical OMNIA, [ATP] = 50uM
[6] = 50% (v/v) mouse plasma, mean IC50, read-out: FAK Activity Mechanistic (U87MG) MP

T2 sequence (Q05397 whole entry): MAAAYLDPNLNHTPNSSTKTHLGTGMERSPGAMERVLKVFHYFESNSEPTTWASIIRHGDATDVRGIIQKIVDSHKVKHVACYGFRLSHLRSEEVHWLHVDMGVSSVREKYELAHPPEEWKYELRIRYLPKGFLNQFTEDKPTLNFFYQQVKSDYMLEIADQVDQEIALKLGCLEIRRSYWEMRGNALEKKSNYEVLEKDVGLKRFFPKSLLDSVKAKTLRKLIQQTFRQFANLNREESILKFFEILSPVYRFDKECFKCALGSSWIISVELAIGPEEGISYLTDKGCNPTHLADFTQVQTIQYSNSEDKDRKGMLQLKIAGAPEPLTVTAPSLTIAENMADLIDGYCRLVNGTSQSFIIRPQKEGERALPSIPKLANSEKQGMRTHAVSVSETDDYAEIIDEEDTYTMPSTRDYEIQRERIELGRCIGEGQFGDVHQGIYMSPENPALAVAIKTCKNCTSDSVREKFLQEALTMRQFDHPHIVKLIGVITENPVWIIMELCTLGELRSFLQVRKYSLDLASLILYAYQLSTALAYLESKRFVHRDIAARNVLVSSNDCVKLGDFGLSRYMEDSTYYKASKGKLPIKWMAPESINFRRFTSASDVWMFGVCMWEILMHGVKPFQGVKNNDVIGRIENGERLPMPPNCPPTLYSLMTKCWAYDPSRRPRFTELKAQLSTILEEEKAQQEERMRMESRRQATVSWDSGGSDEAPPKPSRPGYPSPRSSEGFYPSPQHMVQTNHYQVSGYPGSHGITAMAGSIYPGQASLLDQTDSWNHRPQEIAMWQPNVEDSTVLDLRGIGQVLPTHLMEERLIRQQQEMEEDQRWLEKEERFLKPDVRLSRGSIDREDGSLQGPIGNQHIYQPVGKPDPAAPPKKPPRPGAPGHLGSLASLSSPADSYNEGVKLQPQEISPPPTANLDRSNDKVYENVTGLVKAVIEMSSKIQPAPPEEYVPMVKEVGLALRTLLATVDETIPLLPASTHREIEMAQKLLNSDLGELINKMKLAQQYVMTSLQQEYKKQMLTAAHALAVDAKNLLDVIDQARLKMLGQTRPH
T1 sequence (Q05397 whole entry): as above

| IC50 [2, 6] [nM] | SMILES | IC50 [1] [nM] | IC50 [2, 3] [nM] | IC50 [2, 4] [nM] | IC50 [1, 5] [nM] |
| --- | --- | --- | --- | --- | --- |
|  | CCOP1(=O)Cc2ccc(c(Cl)c2)Nc2ncc(C(F)(F)F)c(n2)Nc2ccc(nc2C(=O)NC)-c2cnn(c2)CC2(COC2)CO1 (racemic) [Example 58] | < 400 | < 400 | < 400 |  |
| < 400 | CCCP1(=O)Cc2ccc(c(OC)c2)Nc2ncc(C(F)(F)F)c(n2)Nc2ccc(cc2C(=O)NC)-c2cnn(c2)CCCO1 (racemic) [Example 66] |  | < 400 | < 400 | < 400 |
| < 400 | CCP1(=O)Cc2ccc(c(OC)c2)Nc2ncc(C(F)(F)F)c(n2)Nc2ccc(nc2C(=O)NC)-c2cnn(c2)CCCO1 (racemic) [Example 67] |  | < 400 | < 400 | < 400 |
| < 400 | CNC(=O)c1nc2ccc1Nc1nc(ncc1C(F)(F)F)Nc1ccc(cc1OC)CP(=O)(C(C)C)OCCCn1cc-2cn1 (racemic) [Example 68] |  | < 400 | < 400 | < 400 |
|  | CCOP1(=O)Cc2ccc(c(OC)c2)Nc2ncc(C(F)(F)F)c(n2)Nc2ccc(nc2C(=O)NC)-c2cnn(c2)CCCO1 (single isomer, unassigned) [Example 6B] | < 400 | < 400 | < 400 |  |
|  | CCOP1(=O)Cc2ccc(c(OC)c2)Nc2ncc(C(F)(F)F)c(n2)Nc2ccc(nc2C(=O)NC)-c2cnn(c2)CC(C)CO1 (single isomer, unassigned) [Example 18] |  | < 400 | < 400 | < 400 |
|  | CCOP1(=O)Cc2ccc(c(OC)c2)Nc2ncc(C(F)(F)F)c(n2)Nc2ccc(nc2C(=O)NC)-c2cn(nc2C)CCCO1 (single isomer, unassigned) [Example 34A] |  | 400 to 4000 | < 400 | < 400 |
|  | CCOP1(=O)Cc2ccc(c(OC)c2)Nc2ncc(C(F)(F)F)c(n2)Nc2ccc(nc2C(=O)NC)-c2cnn(c2C)CCCO1 (single isomer, unassigned) [Example 35A] |  | 400 to 4000 | < 400 | < 400 |
|  | CCOP1(=O)Cc2ccc(c(OC)c2)Nc2ncc(C(F)(F)F)c(n2)Nc2ccc(nc2C(=O)NC)-c2cnn(c2C)CCCO1 (single isomer, unassigned) [Example 35B] |  | < 400 | < 400 | < 400 |
| 400 to 4000 | CCCP1(=O)Cc2ccc(c(OC)c2)Nc2ncc(C(F)(F)F)c(n2)Nc2ccc(nc2C(=O)NC)-c2cnn(c2)CCCO1 (single isomer, unassigned) [Example 37A] |  | 400 to 4000 | < 400 | < 400 |
|  | CCOP1(=O)Cc2ccc(c(OC)c2)Nc2ncc(C(F)(F)F)c(n2)Nc2ccc(nc2C(=O)NC)-c2cnn(c2)CC2(COC2)CO1 (single isomer, unassigned) [Example 44A] | < 400 | < 400 | < 400 |  |
|  | CCNC(=O)c1nc2ccc1Nc1nc(ncc1C(F)(F)F)Nc1ccc(cc1OC)CP(=O)(OCC)OCC1(COC1)Cn1cc-2cn1 (single isomer, unassigned) [Example 45A] | < 400 | 400 to 4000 | < 400 |  |

| SMILES | IC50 [2, 6] [nM] | IC50 [1] [nM] | IC50 [2, 3] [nM] | IC50 [2, 4] [nM] | IC50 [1, 5] [nM] |
| --- | --- | --- | --- | --- | --- |
| CCOP1(=O)Cc2ccc(c(Cl)c2)Nc2ncc(C(F)(F)F)c(n2)Nc2ccc(nc2C(=O)NC)-c2cnn(c2)CCCO1 (single isomer, unassigned) [Example 24A] | 400 to 4000 |  | > 4000 | < 400 | < 400 |
| CCOP1(=O)Cc2ccc(c(OC)c2)Nc2ncc(C(F)(F)F)c(n2)Nc2ccc(nc2C(=O)NC)-c2cn(nc2OC)CCCO1 (single isomer, unassigned) [Example 48A] | 400 to 4000 | < 400 | > 4000 | < 400 |  |

Reference: patent publication US9133224B2, “Macrocyclic kinase inhibitors” (OSI Pharmaceuticals, LLC, priority 2010, dated 2015)
